Results as given in patent US20120277187A1, “Agent for Preventing Infection” (priority 2006, published 2012).
“Also recorded” adds a separate entry of the source.

Assays:
Type in all cases: in vivo, mouse (Balb/c)
[1] = system: A/Guizhou virus (type A influenza virus); experiment: Transnasal sphingomyelin with simultaneous type A influenza virus infection in mice (nasal cavity wash virus titer, plaque method with MDCK cell)
Experimental: (§1) (Verification of the Effect to Prevent Infection with Type A Influenza Virus and Type B Influenza Virus)
(§2) Mice (Balb/c, male, 6 weeks of age) were transnasally infected with A/Guinzhou virus as the type A influenza virus or B/Ibaraki virus as the type B influenza virus, and at the same time, a 100 μg/ml solution of the sphingomyelin (SPM) obtained in Example 1 was transnasally administered at a dose of 5 μl/nasal cavity dose (dose: 0.5 μg), and the preventive effect on the infection with an influenza virus was judged by the virus titer in the nasal cavity washes. In this connection, groups transnasally infected with respective influenza viruses alone were prepared. A plaque method which uses MDCK cell was used in the judgment.

[2] = system: B/Ibaraki virus (type B influenza virus); experiment: Transnasal sphingomyelin with simultaneous type B influenza virus infection in mice (nasal cavity wash virus titer, plaque method with MDCK cell)
Experimental: as §1, §2

[3] = system: influenza virus PR 8 (H1N1); experiment: Oral administration of sphingomyelin, prevention of influenza virus infection in mice (nasal cavity wash virus titer, plaque method with MDCK cell); conditions: for Nasal cavity virus titer x (PFU/ml: 10^x): 1×10^3 pfu PR 8 (H1N1), nasal cavity washes 3 days after infection
Text: (Verification of the Effect of Oral Administration of Sphingomyelin on the Prevention of Infection with an Influenza Virus)
A mouse (Balb/c, male, 6 weeks of age) was infected with 1×10^3 pfu in viral quantity of influenza virus PR 8 (H1N1). Before the infection treatment, sphingomyelin was orally administered, and its infection preventive effect was judged by the virus titer in the nasal cavity washes 3 days after the virus infection. In carrying out the oral administration, sphingomyelin was used by dispersing in water. A plaque method which uses MDCK cell was used in the judgment.
This indicates the effect of sphingomyelin to prevent infection with an influenza virus.

Question: Which results are given for sphingomyelin [SPM]?
Answer: Nasal cavity virus titer ([1]; A/Guizhou virus, transnasal 100 μg/ml, 5 μl/nasal cavity (dose 0.5 μg) at the same time as infection): 1.99 ± 0.31; Infection preventive effect (in words) ([1]; type A influenza virus, transnasal administration): confirmed; also recorded: more considerable effect; Nasal cavity virus titer ([2]; B/Ibaraki virus, transnasal 100 μg/ml, 5 μl/nasal cavity (dose 0.5 μg) at the same time as infection): 2.73 ± 0.06; Infection preventive effect (in words) ([2]; type B influenza virus, transnasal administration): confirmed; Nasal cavity virus titer x (PFU/ml: 10^x) ([3]; 1 mg oral before infection): 2.23 ± 0.16 PFU/ml: 10^x; Nasal cavity virus titer x (PFU/ml: 10^x) ([3]; 10 mg oral before infection): 2.15 ± 0.29 PFU/ml: 10^x; Nasal cavity virus titer in administration group (in words) ([3]; oral administration group versus control (no administration)): lowered with significance
